In patent US9845311B2, “Nrf2 activating compounds and uses thereof” (RIGEL PHARMACEUTICALS, INC., priority 2016, dated 2017):
Structures can show the parent of a compound that is named as a salt.

What was measured:
[1] = tested on: NrF2 (Nuclear factor (erythroid-derived 2)-like 2); test: NrF2 activation in a whole cell nuclear translocation assay; format: cell-based
Description: Compounds are tested in a NrF2 (Nuclear factor (erythroid-derived 2)-like 2) translocation assay by adapting the methods set forth in U.S. Pat. No. 8,101,373, the disclosure of which is incorporated herein by reference. A result of NrF2 activation in the assay by the present compounds is an indication of their anti-inflammatory activity. […] In addition to monomethyl fumarate and dimethyl fumarate, bardoxolone methyl may be used as a positive control.

[2] = Glutathione depletion assay (Michael addition to reduced glutathione, followed by 1H NMR); format: physicochemical; conditions: 2 equiv. reduced glutathione, d6-DMSO, 35° C.
Excerpt: See, for example, Lehmann et al. Dimethyfumarate Induces Immunosuppression via Glutathione Depletion and Subsequent Induction of Heme Oxygenase 1, Journal of Investigative Dermatology (2007) 127, 835-845. Accordingly, the present compounds may be assessed in vitro by reaction with glutathione as follows:
(with the top securely fastened).
In all the above cases, dis-appearance of the alkene proton signals from the starting material are used to determine the extent of Michael reaction with glutathione.
As would be understood by those of skill in the art, the above experiments can be repeated by varying the equivalents of reduced glutathione (0.5 to 2 equivalents); the reactions can also be run in a mixture of d6-DMSO and D2O; and the temperature of the reaction can also be varied from room temperature to 35° C. (35° C. being used to mimic body temperature). As used herein “majority reaction” means a greater than 50% reduction in alkene proton signal as observed by ^1H NMR.

[3] = tested on: experimental autoimmune encephalomyelitis (EAE); test: Experimental autoimmune encephalomyelitis (EAE) animal model; format: in vivo, mice; conditions: dosed at 60 mg/kg beginning on the day of immunization

Row | EC50 [1] | Structure (SMILES) | time to majority reaction with glutathione (greater than 50% reduction in alkene proton signal by 1H NMR) [2] | onset of disease paralysis [3]
1 | ~127 µM | COC(=O)/C=C/C(=O)O [Monomethyl fumarate, monomethylfumarate] |  | 
2 |  | COC(=O)/C=C/n1nnn(C)c1=O [methyl (E)-3-(4-methyl-5-oxo-4,5-dihydro-1H-tetrazol-1-yl)acrylate] | ≤ 30 h | 
3 |  | COC(=O)/C=C/n1nn[nH]c1=O [methyl (E)-3-(5-oxo-4,5-dihydro-1H-tetrazol-1-yl)acrylate] | ≤ 30 h | significantly prevents the onset of disease paralysis
